Among the data in US5143908A, “Antibacterial agents and potentiators of carbapenem antibiotics” (Merck & Co., Inc., priority 1990, dated 1992) are IC50 and MIC values, retold here.

Assay [1] deals with T1, D-Alanyl-D-Alanine ligase (Enterococcus hirae, UniProt Q47827).
T1 sequence (Q47827 1-358): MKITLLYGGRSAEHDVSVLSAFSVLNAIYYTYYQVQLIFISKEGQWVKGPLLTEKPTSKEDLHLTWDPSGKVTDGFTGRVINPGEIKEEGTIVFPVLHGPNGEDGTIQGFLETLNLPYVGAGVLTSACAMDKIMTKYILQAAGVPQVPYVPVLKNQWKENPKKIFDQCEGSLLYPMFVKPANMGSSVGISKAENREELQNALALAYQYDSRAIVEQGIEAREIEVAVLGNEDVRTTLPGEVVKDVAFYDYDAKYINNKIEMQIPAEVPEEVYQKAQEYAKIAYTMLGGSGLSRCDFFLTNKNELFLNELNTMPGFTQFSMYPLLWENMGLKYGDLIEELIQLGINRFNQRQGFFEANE
Nature of the assay: D-Alanyl-D-Alanine ligase inhibition in vitro. In kind it is biochemical. As to conditions: inhibitor pre-incubated with enzyme 40 minutes at room temperature, then 37° C. for 30 minutes; 14C-D-alanine substrate; read-out: IC50 (μM), DAlaAla ligase inhibition. As to the method: The ligase enzyme inhibitory activity of compounds of Formula I have been evaluated in vitro with only minor modifications of the procedures of F. C. Neuhaus (Biochemistry 3, 471-480 (1964) and references cited therein) using D-cycloserine as a control and standard ligase inhibitor. The procedure is as follows:
Streptococcus faecalis (ATCC 8043) was grown as described by Neuhaus (J. Biol. Chem., 237:778, 1962). Cell-free extracts were prepared by sonication followed by centrifugation at 27,000 x g for 30 minutes. Protein was precipitated with 55% ammonium sulfate. The precipitate was dissolved in 0.05M Tris-Cl buffer (pH 7.0), dialyzed against 0.002M glutathione and stored in liquid nitrogen. No loss of activity was observed after 1 year.
The assay mixture contained 0.05M Tris-Cl buffer (pH 7.9), 0.01M KCl, 0.008M MgCl2, 0.005M ATP, 0.005M (14C-l)-D-alanine and 5 μl of enzyme (specific activity=0.38 units/mg protein). Assay volume was 0.1 ml.
Inhibitors were pre-incubated with enzyme, MgCl2, KCl and buffer, for 40 minutes at room temperature, before addition of ATP and substrate. Samples were subsequently incubated at 37° C. for 30 minutes.
Twenty μl of each sample was applied to the preabsorbent layer of high resolution, prechanneled silica-gel TLC plates to stop the reaction. Plates were developed in ethanol:ammonium hydroxide:H2 O (11:1:8) for 2-3 hours and the radioactive zones located and integrated with a Berthold Linear Analyzer. […] IC50's were determined for active compounds (70% inhibition).

In the next assay the test system is E. coli TEM 2+. Description: Agar dilution antibacterial assay (MIC). It counts as cell-based. As to conditions: Escherichia coli, read-out: Minimum Inhibitory Concentration, E. coli TEM 2+. The text has this:
The antibacterial data shown below were obtained using a synthetic agar medium described by F. R. Atherton et al., Antimicrobial Agents and Chemotherapy, 15, 677 (1979).
(Minimum Inhibitory Concentrations from Agar Dilution Assays in mg/ml)
For orientation: In agar dilution, organisms are placed on agar that contains the substance at set levels.

In brackets after ≈: the same amount, converted by molar mass.

As usually defined, the IC50 is the concentration at which inhibition is half-maximal.

Regarding `CC(N)P(=O)(O)CCC(=O)O` (racemic) [DL, R2=H, R3=H, 1-Aminoethyl-[2-carboxy-1-ethyl]phosphinic acid], the IC50 in assay [1] was 535 µM.

As for `CCC(CP(=O)(O)C(C)N)C(=O)O` (racemic) [DL, R2=ethyl, R3=H, 1-Aminoethyl-[2-carboxy-1-n-butyl]phosphinic acid], the IC50 in assay [1] is 50 µM.

In the case of `CCCCCCCC(CP(=O)(O)C(C)N)C(=O)O` (racemic) [DL, R2=n-heptyl, R3=H, 1-Aminoethyl-[2-carboxy-1-nonyl]phosphinic acid], the IC50 in assay [1] came out at 12.5 µM.

With `CCC(CP(=O)(O)[C@@H](C)N)C(=O)O` (stereo partly drawn) [D, R2=ethyl, R3=H, 1-D-Aminoethyl-(2-carboxy-1-n-butyl)phosphinic acid], in the assay on E. coli TEM 2+, the MIC was 64 mg/mL (≈ 306 mM).
